The source of these data is patent publication US20180214428A1, “3-(1H-INDOL-2-YL)-1H-PYRAZOLO[3,4-B]PYRIDINES AND THERAPEUTIC USES THEREOF” (Samumed, LLC, priority 2015, published 2018).

Some results are limits rather than exact numbers.

One assay has as its system SW480 colon cancer cells. Briefly: Cell viability assay (CellTiter-Blue) in SW480 colon cancer cells. Type of assay: cell-based, human. To be noted: for EC50: four days, CellTiter-Blue; for inhibition at 10 µM: given for EC50 of >10 μM, read-out: percent inhibition at 10 μM. The essentials: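 Approximately 2×10^3 SW480 cells per well are seeded with compound (8 points, threefold steps, top 10 μM) and incubated four days at 37 °C. CellTiter-Blue is then added for about 3 h and fluorescence read. Non-linear regression gives EC50; for values beyond 10 μM, percent inhibition at that concentration is listed.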

Assay [1] relates to primary human fibroblasts derived from IPF patients (LL29 cells). In words: Inhibition of the fibrotic process: αSMA staining in TGF-β1 treated LL29 fibroblasts. Type of assay: cell-based. As to conditions: for EC50: TGF-β1 20 ng/mL, 4 days, % αSMA positive cells; for inhibition at 10 µM: read-out: percent inhibition at 10 μM. The procedure, abridged: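 IPF patient-derived LL29 fibroblasts in 1% FBS medium got compound (11-point, 10 μM to 1.87 nM, 0.1% DMSO) plus TGF-β1 20 ng/mL, 4 days at 37° C. αSMA-positive live cells (SYTOX-excluded) were imaged, normalized to TGF-β1 controls and fitted for EC50; % inhibition at 10 μM given when EC50 >10 μM.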

The mark [2] stands for this setting: Homo sapiens, Fibroblast, at 10 μM, given for EC50 of >10 μM, TGF-β1, αSMA.

Regarding `CCNCc1cncc(-c2cnc3[nH]nc(-c4cc5c(N6CCCCC6)cccc5[nH]4)c3c2)c1` [Compound 150, N-((5-(3-(4-(Piperidin-1-yl)-1H-indol-2-yl)-1H-pyrazolo[3,4-b]pyridin-5-yl)pyridin-3-yl)methyl)ethanamine], the 50% effective concentration (EC50) in the assay on SW480 colon cancer cells (Homo sapiens, 96 h) was determined as 2.83 µM; in assay [1] (Homo sapiens, Fibroblast, 96 h), 2.74 µM.

With `Cc1ncc(-c2cnc3[nH]nc(-c4cc5ccccc5[nH]4)c3c2)n1C` [Compound 655, 5-(1,2-Dimethyl-1H-imidazol-5-yl)-3-(1H-indol-2-yl)-1H-pyrazolo[3,4-b]pyridine], the EC50 in the assay with SW480 colon cancer cells (Homo sapiens, 96 h) was 3.72 µM; in assay [1] (Homo sapiens, Fibroblast, 96 h), 3.88 µM.

Regarding `Nc1cncc(-c2cnc3[nH]nc(-c4cc5c(-c6ccccn6)cccc5[nH]4)c3c2)c1` [Compound 121, 5-(3-(4-(Pyridin-2-yl)-1H-indol-2-yl)-1H-pyrazolo[3,4-b]pyridin-5-yl) pyridin-3-amine], the concentration for a half-maximal effect (EC50) in the assay with SW480 colon cancer cells (Homo sapiens, 96 h) came out at 0.726 µM; in assay [1] (Homo sapiens, Fibroblast, 96 h), 0.241 µM.

In the case of `CC(C)Nc1cncc(-c2cnc3[nH]nc(-c4cc5c(-c6cc(F)cc(NCCN(C)C)c6)cccc5[nH]4)c3c2)c1` [Compound 434, N^1-(3-Fluoro-5-(2-(5-(5-(isopropylamino)pyridin-3-yl)-1H-pyrazolo[3,4-b]pyridin-3-yl)-1H-indol-4-yl)phenyl)-N^2,N^2-dimethylethane-1,2-diamine], the concentration giving a half-maximal response (EC50) with SW480 colon cancer cells (Homo sapiens, 96 h) turned out to be 0.394 µM; in assay [1] (Homo sapiens, Fibroblast, 96 h) it was 1.44 µM.

As to `CN(C)Cc1cncc(-c2cnc3[nH]nc(-c4cc5c(-c6cc(F)cc(CNS(C)(=O)=O)c6)cccc5[nH]4)c3c2)c1` [Compound 463, N-(3-(2-(5-(5-((Dimethylamino)methyl)pyridin-3-yl)-1H-pyrazolo[3,4-b]pyridin-3-yl)-1H-indol-4-yl)-5-fluorobenzyl)methane sulfonamide], the EC50 in the assay on SW480 colon cancer cells (Homo sapiens, 96 h) was determined as 1.07 µM; in assay [1] (Homo sapiens, Fibroblast, 96 h) it was 2.03 µM.

With `c1ccc(-c2cccc3[nH]c(-c4n[nH]c5ncc(-c6cncnc6)cc45)cc23)nc1` [Compound 143, 3-(4-(Pyridin-2-yl)-1H-indol-2-yl)-5-(pyrimidin-5-yl)-1H-pyrazolo[3,4-b]pyridine], the EC50 is 9.91 µM with SW480 colon cancer cells (Homo sapiens, 96 h) and 4.96 µM in assay [1] (Homo sapiens, Fibroblast, 96 h).

For `Fc1ccc(-c2cccc3[nH]c(-c4n[nH]c5ncc(-c6cncnc6)cc45)cc23)cc1` [Compound 47, 3-(4-(4-Fluorophenyl)-1H-indol-2-yl)-5-(pyrimidin-5-yl)-1H-pyrazolo[3,4-b]pyridine], the EC50 with SW480 colon cancer cells (Homo sapiens, 96 h) is above 10 µM; in assay [1] (Homo sapiens, Fibroblast, 96 h), 4.96 µM. The inhibition at 10 µM in the assay on SW480 colon cancer cells (Homo sapiens) is 11.8%.

Regarding `Fc1ccc(-c2cccc3[nH]c(-c4n[nH]c5ncc(-c6cncc(CN7CCCC7)c6)cc45)cc23)cc1` [Compound 35, 3-(4-(4-Fluorophenyl)-1H-indol-2-yl)-5-(5-(pyrrolidin-1-ylmethyl)pyridin-3-yl)-1H-pyrazolo[3,4-b]pyridine], the EC50 with SW480 colon cancer cells (Homo sapiens, 96 h) amounted to 4.83 µM; in assay [1] (Homo sapiens, Fibroblast, 96 h), 2.35 µM.

In the case of `CCCC(=O)Nc1cncc(-c2cnc3[nH]nc(-c4cc5c(-c6cccc(F)c6)cccc5[nH]4)c3c2)c1` [Compound 14, N-(5-(3-(4-(3-Fluorophenyl)-1H-indol-2-yl)-1H-pyrazolo[3,4-b]pyridin-5-yl)pyridin-3-yl)butyramide], the EC50 with SW480 colon cancer cells (Homo sapiens, 96 h) is above 10 µM; in assay [1] (Homo sapiens, Fibroblast, 96 h), above 10 µM. Further, the inhibition at 10 µM in the assay with SW480 colon cancer cells (Homo sapiens) came out at 9.9%.

In the case of `CC(C)(C)CC(=O)Nc1cncc(-c2cnc3[nH]nc(-c4cc5ccccc5[nH]4)c3c2)c1` [Compound 242, N-(5-(3-(1H-Indol-2-yl)-1H-pyrazolo[3,4-b]pyridin-5-yl)pyridin-3-yl)-3,3-dimethylbutanamide], the concentration giving a half-maximal response (EC50) is above 10 µM in the assay with SW480 colon cancer cells (Homo sapiens, 96 h) and above 10 µM in assay [1] (Homo sapiens, Fibroblast, 96 h). Further, the inhibition at 10 µM was determined as 14.3% in the assay on SW480 colon cancer cells (Homo sapiens) and 0% in assay [1] (setting [2]).

`O=C(CC1CCNCC1)Nc1cncc(-c2cnc3[nH]nc(-c4cc5c(-c6ccccn6)cccc5[nH]4)c3c2)c1` [Compound 595, 2-(Piperidin-4-yl)-N-(5-(3-(4-(pyridin-2-yl)-1H-indol-2-yl)-1H-pyrazolo[3,4-b]pyridin-5-yl)pyridin-3-yl)acetamide]: the half-maximal effective concentration (EC50) with SW480 colon cancer cells (Homo sapiens, 96 h) was above 10 µM; in assay [1] (Homo sapiens, Fibroblast, 96 h) it was 5.61 µM. Also, the inhibition at 10 µM in the assay with SW480 colon cancer cells (Homo sapiens) came to 11.3%.

In the case of `FC1(F)CCN(Cc2cncc(-c3cnc4[nH]nc(-c5cc6c(-c7ccoc7)cccc6[nH]5)c4c3)c2)C1` [Compound 308, 5-(5-((3,3-Difluoropyrrolidin-1-yl)methyl)pyridin-3-yl)-3-(4-(furan-3-yl)-1H-indol-2-yl)-1H-pyrazolo[3,4-b]pyridine], the half-maximal effective concentration (EC50) in the assay with SW480 colon cancer cells (Homo sapiens, 96 h) was found to be 2.99 µM; in assay [1] (Homo sapiens, Fibroblast, 96 h), 3.21 µM.

Regarding `CN(C)CCNc1cc(F)cc(-c2cccc3[nH]c(-c4n[nH]c5ncc(-c6cncc(CN7CCCCC7)c6)cc45)cc23)c1` [Compound 437, N^1-(3-Fluoro-5-(2-(5-(5-(piperidin-1-ylmethyl)pyridin-3-yl)-1H-pyrazolo[3,4-b]pyridin-3-yl)-1H-indol-4-yl)phenyl)-N^2,N^2-dimethylethane-1,2-diamine], the EC50 in the assay with SW480 colon cancer cells (Homo sapiens, 96 h) was 3.86 µM; in assay [1] (Homo sapiens, Fibroblast, 96 h), 5.44 µM.

For `O=C(Nc1cncc(-c2cnc3[nH]nc(-c4cc5c(N6CCCCC6)cccc5[nH]4)c3c2)c1)c1ccccc1` [Compound 155, N-(5-(3-(4-(Piperidin-1-yl)-1H-indol-2-yl)-1H-pyrazolo[3,4-b]pyridin-5-yl)pyridin-3-yl)benzamide], the EC50 in the assay on SW480 colon cancer cells (Homo sapiens, 96 h) is above 10 µM; in assay [1] (Homo sapiens, Fibroblast, 96 h), 5.17 µM. For the same molecule, in the assay with SW480 colon cancer cells (Homo sapiens), the inhibition at 10 µM was 31%.

Consider `O=C(Nc1cncc(-c2cnc3[nH]nc(-c4cc5c(-c6cccnc6)cccc5[nH]4)c3c2)c1)C1CCC1` [Compound 89, N-(5-(3-(4-(Pyridin-3-yl)-1H-indol-2-yl)-1H-pyrazolo[3,4-b]pyridin-5-yl)pyridin-3-yl)cyclobutanecarboxamide], for which the EC50 is 0.565 µM with SW480 colon cancer cells (Homo sapiens, 96 h) and 0.147 µM in assay [1] (Homo sapiens, Fibroblast, 96 h).

On to `CN1CCN(c2cccc3[nH]c(-c4n[nH]c5ncc(-c6cncc(CN7CCCCC7)c6)cc45)cc23)CC1` [Compound 215, 3-(4-(4-Methylpiperazin-1-yl)-1H-indol-2-yl)-5-(5-(piperidin-1-ylmethyl)pyridin-3-yl)-1H-pyrazolo[3,4-b]pyridine], for which the EC50 in the assay with SW480 colon cancer cells (Homo sapiens, 96 h) was 3.52 µM; in assay [1] (Homo sapiens, Fibroblast, 96 h), 1.76 µM.

`CN1CCN(c2cccc3[nH]c(-c4n[nH]c5ncc(-c6cncc(NC(=O)C7CCCC7)c6)cc45)cc23)CC1` [Compound 222, N-(5-(3-(4-(4-Methylpiperazin-1-yl)-1H-indol-2-yl)-1H-pyrazolo[3,4-b]pyridin-5-yl)pyridin-3-yl)cyclopentanecarboxamide]: the half-maximal effective concentration (EC50) was 0.828 µM with SW480 colon cancer cells (Homo sapiens, 96 h) and 0.79 µM in assay [1] (Homo sapiens, Fibroblast, 96 h).

Regarding `c1ccc(-c2cnc3[nH]nc(-c4cc5c(-c6ccncc6)cccc5[nH]4)c3c2)nc1` [Compound 120, 5-(Pyridin-2-yl)-3-(4-(pyridin-4-yl)-1H-indol-2-yl)-1H-pyrazolo[3,4-b]pyridine], the EC50 in the assay with SW480 colon cancer cells (Homo sapiens, 96 h) is above 10 µM; in assay [1] (Homo sapiens, Fibroblast, 96 h), 0.642 µM. In the assay on SW480 colon cancer cells (Homo sapiens), the inhibition at 10 µM came to 22.8%.

For the molecule `Cc1ccncc1-c1cnc2[nH]nc(-c3cc4c(-c5ccncc5)cccc4[nH]3)c2c1` [Compound 99, 5-(4-Methylpyridin-3-yl)-3-(4-(pyridin-4-yl)-1H-indol-2-yl)-1H-pyrazolo[3,4-b]pyridine], the EC50 was above 10 µM in the assay on SW480 colon cancer cells (Homo sapiens, 96 h) and 2.61 µM in assay [1] (Homo sapiens, Fibroblast, 96 h). In addition, the inhibition at 10 µM in the assay on SW480 colon cancer cells (Homo sapiens) stood at 36.8%.

Consider `CN1CCN(c2cccc3[nH]c(-c4n[nH]c5ncc(-c6cncnc6)cc45)cc23)CC1` [Compound 227, 3-(4-(4-Methylpiperazin-1-yl)-1H-indol-2-yl)-5-(pyrimidin-5-yl)-1H-pyrazolo[3,4-b]pyridine], for which the 50% effective concentration (EC50) in the assay with SW480 colon cancer cells (Homo sapiens, 96 h) is 8.76 µM; in assay [1] (Homo sapiens, Fibroblast, 96 h) it was above 10 µM. The inhibition at 10 µM in assay [1] (setting [2]) came out at 47.8%.

`CN(C)c1cncc(-c2cnc3[nH]nc(-c4cc5c(-c6cccc(F)c6)cccc5[nH]4)c3c2)c1` [Compound 5, 5-(3-(4-(3-Fluorophenyl)-1H-indol-2-yl)-1H-pyrazolo[3,4-b]pyridin-5-yl)-N,N-dimethylpyridin-3-amine]: the EC50 in the assay with SW480 colon cancer cells (Homo sapiens, 96 h) was 2.59 µM; in assay [1] (Homo sapiens, Fibroblast, 96 h), 0.95 µM.

Turning to `CN(C)CCNc1cc(F)cc(-c2cccc3[nH]c(-c4n[nH]c5ncc(-c6ccncc6)cc45)cc23)c1` [Compound 440], the EC50 in the assay with SW480 colon cancer cells was 4.14 µM; in assay [1], above 10 µM. Further, the “percent inhibition at 10 μM” value in assay [1] (at 10 μM, given for EC50 of >10 μM, TGF-β1, αSMA) stood at 0%.

As to `CC(C)C(=O)Nc1cncc(-c2cnc3[nH]nc(-c4cc5c(N6CCN(C)CC6)cccc5[nH]4)c3c2)c1` [Compound 209, N-(5-(3-(4-(4-Methylpiperazin-1-yl)-1H-indol-2-yl)-1H-pyrazolo[3,4-b]pyridin-5-yl)pyridin-3-yl)isobutyramide], the EC50 is above 10 µM with SW480 colon cancer cells (Homo sapiens, 96 h) and 5.62 µM in assay [1] (Homo sapiens, Fibroblast, 96 h). For the same molecule, the inhibition at 10 µM with SW480 colon cancer cells (Homo sapiens) was 41.5%.

For `O=C(Nc1cncc(-c2cnc3[nH]nc(-c4cc5c(-c6ccc(F)cc6)cccc5[nH]4)c3c2)c1)C1CCC1` [Compound 41, N-(5-(3-(4-(4-Fluorophenyl)-1H-indol-2-yl)-1H-pyrazolo[3,4-b]pyridin-5-yl)pyridin-3-yl)cyclobutanecarboxamide], the EC50 in the assay on SW480 colon cancer cells (Homo sapiens, 96 h) is 5.1 µM; in assay [1] (Homo sapiens, Fibroblast, 96 h), 1.16 µM.

In the case of `c1ccc(-c2cccc3[nH]c(-c4n[nH]c5ncc(-c6cncc(CN7CCCC7)c6)cc45)cc23)nc1` [Compound 131, 3-(4-(Pyridin-2-yl)-1H-indol-2-yl)-5-(5-(pyrrolidin-1-ylmethyl)pyridin-3-yl)-1H-pyrazolo[3,4-b]pyridine], the concentration for a half-maximal effect (EC50) in the assay on SW480 colon cancer cells (Homo sapiens, 96 h) is 1.19 µM; in assay [1] (Homo sapiens, Fibroblast, 96 h) it was 0.97 µM.
